Test results published in patent US20150366932A1, “METHODS FOR PRODUCING DIKETOPIPERAZINES AND COMPOSITIONS CONTAINING DIKETOPIPERAZINES” (AMPIO PHARMACEUTICALS, INC., priority 2013, published 2015).
“Also recorded” adds a separate entry of the source. Blank lines part the entries; values can stand above or below the compound they belong to.

What was measured:
[1] = test system: activated PBMC and T-lymphocytes; conditions: activated PBMC and T-lymphocytes in vitro; cited from earlier work
DPP-IV = target: T1, DPP-IV (Homo sapiens, UniProt P27487); test: DA-DKP formation in 5% commercial HSA heated at 60° C., <5 kDa fraction by LCMS; type: biochemical
T1 construct: the Cohn manufacturing process which isolates other plasma components such as DPP-IV; tissue CSL Behring LLC; Grifols Biologicals Inc; Octapharma USA Inc. (5% HSA products that contain the enzyme); host or cells: human plasma (Cohn fractionation; commercial 5% HSA solution)
Experimental: For the analysis of DA-DKP formation, an aliquot was added to a microcentrifugal filter (Vivaspin 2, MWCO 5,000, Sartorius Stedim Biotech, Goettingen, Germany). Filters were centrifuged at 3,500 rpm for 30 minutes at room temperature. The <5 kDa fraction was collected and transferred to a separate, storage tube for LCMS analysis.
Each <5 kDa fraction & DA-DKP synthetic standard (20-2000 ng/mL) were spiked with 0.01 mM L-Tryptophan-d5 (indole-d5) which was used as an internal standard. 50 μL was injected into a strong anion exchange column (Spherisorb, S5 SAX 250 mm×4.0 mm, Waters, Milford, Mass., USA) connected to high performance liquid chromatography (HPLC, Waters 2795 Separations Module, Milford, Mass., USA) coupled to a mass spectrometer (LCT-TOF, Micromass, UK). […]
The output of the HPLC was split 1:20 (v/v) and injected into the mass spectrometer using negative electrospray ionization (−ESI) with a scan range of 80 to 1000 m/z, cone voltage of 30 eV, source temperature of 100° C., and gas temperature of 300° C. DA-DKP was measured by monitoring [M]=185, which corresponds to DA-DKP minus a single proton (—H+). The straight chain of DA-DKP, Asp-Ala, can also be analyzed with this method by monitoring [M]=203.
The formation of the DKP, DA-DKP, was measured in a commercial HSA solution heated at 60° C. in the presence or absence of a known DPP-IV inhibitor (diprotin A). […]

[2] = target: T2, dipeptidyl peptidase IV (DPP-IV) (Homo sapiens, UniProt P27487); test: DPP-IV activity assay with chromogenic substrate Gly-Pro-pNA in HSA solutions; type: biochemical; conditions: 1 mM diprotin A pre-incubated 15 minutes at 37° C.; Gly-Pro-pNA 1 mM; 24 hour incubation at 37° C.
T2 construct: the Cohn manufacturing process which isolates other plasma components such as DPP-IV; tissue CSL Behring LLC; Grifols Biologicals Inc; Octapharma USA Inc. (5% HSA products that contain the enzyme); host or cells: human plasma (Cohn fractionation; commercial 5% HSA solution)
Experimental: DPP-IV activity was assayed by using a chromogenic substrate, Gly-Pro-pNA, as described in E. Nemoto, S. Sugawara, H. Takada, et al., Increase of CD26/dipeptidyl peptidase IV expression on human gingival fibroblasts upon stimulation with cytokines and bacterial components. […] All reactions were carried out in DPP-IV assay buffer (pH 7.6) consisting of 0.1M HEPES, 0.12M NaCl, 5 mM KCl, 8 mM glucose, and 10 mg/ml bovine serum albumin (BSA). 5% commercial HSA, recombinant HSA, or buffer blank (0.9% NaCl) were combined with 1 mM Gly-Pro-pNA (DPP-IV substrate) in assay buffer or assay buffer only (−CON). Incubations were performed at 37° C. or 60° C. for 2-24 hours. For DPP-IV inhibition studies, 1 mM diprotin A in assay buffer was pre-incubated with the HSA solutions for 15 minutes at 37° C. prior to DPP-IV substrate addition. All incubations were read at 405 nm (SpectraMax M2 spectrophotometer, Molecular Devices LLC, Sunnyvale, Calif., USA). Each reading at 405 nm was corrected by subtracting the A405 for the DPP-IV substrate-containing incubation from the corresponding A405 for the −CON incubation for each HSA solution tested.
The amount of pNA produced in μM was calculated based on the pNA molar extinction coefficient in HEPES buffer (see R. Lottenberg, C. M. Jackson, Solution composition dependent variation in extinction coefficients for p-nitroaniline. Biochim Biophys Acta 742 (1983) 558-64). […] Groups were compared using a two tailed students' T-test with a significance level at p<0.05. All data is reported as mean±SD.
Dipeptidyl peptidase IV (DPP-IV) activity was assessed in commercial preparations of human serum albumin (HSA). […] The resulting liberation of a chromogen, pNA, was measured spectrophotometrically at 405 nm.

neurokinin-1 receptor = neurokinin-1 receptor (Homo sapiens, UniProt P25103); conditions: cited from earlier work
Sequence of neurokinin-1 receptor (P25103 whole entry): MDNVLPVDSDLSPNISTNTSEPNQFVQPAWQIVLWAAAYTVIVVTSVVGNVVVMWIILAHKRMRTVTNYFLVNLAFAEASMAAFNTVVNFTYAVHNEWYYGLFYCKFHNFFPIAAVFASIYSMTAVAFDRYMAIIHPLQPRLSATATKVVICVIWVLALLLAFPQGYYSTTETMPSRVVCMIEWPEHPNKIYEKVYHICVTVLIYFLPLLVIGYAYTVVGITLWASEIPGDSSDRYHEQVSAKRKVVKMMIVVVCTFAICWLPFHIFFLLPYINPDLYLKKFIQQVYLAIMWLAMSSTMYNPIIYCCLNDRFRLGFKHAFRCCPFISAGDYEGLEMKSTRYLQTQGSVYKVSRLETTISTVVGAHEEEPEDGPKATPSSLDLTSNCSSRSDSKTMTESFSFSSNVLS

T2 sequence (P27487 39-766 limits assumed): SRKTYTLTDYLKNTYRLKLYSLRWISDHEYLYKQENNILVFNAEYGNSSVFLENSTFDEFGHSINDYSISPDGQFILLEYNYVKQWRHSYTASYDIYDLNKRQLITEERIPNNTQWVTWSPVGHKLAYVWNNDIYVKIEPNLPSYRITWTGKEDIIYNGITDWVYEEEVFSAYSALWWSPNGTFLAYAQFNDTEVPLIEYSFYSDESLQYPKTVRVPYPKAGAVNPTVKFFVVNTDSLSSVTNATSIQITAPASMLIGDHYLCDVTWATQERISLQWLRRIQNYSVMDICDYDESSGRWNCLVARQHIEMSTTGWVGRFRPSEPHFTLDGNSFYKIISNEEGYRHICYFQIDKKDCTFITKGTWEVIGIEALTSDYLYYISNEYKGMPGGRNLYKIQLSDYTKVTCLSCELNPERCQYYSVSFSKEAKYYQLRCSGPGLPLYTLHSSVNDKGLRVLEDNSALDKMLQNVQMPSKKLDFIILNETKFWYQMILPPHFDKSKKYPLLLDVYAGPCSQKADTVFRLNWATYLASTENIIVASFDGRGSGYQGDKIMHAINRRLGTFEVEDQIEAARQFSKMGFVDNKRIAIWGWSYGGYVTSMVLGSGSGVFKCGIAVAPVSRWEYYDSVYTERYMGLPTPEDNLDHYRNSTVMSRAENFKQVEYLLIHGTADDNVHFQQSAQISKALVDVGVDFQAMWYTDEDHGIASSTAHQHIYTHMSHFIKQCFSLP
T1 sequence (P27487 39-766 limits assumed): as above

Compound: CC1NC(=O)C(CC(=O)O)NC1=O (centres unmarked) [DA-DKP, 3-methyl-2,5-diketopiperazine-6-acetic acid]
Immunosuppressive effects [1]: immunosuppressive effects

Decrease of amount of DA-DKP produced with inhibitor (DPP-IV; 24 hour period, commercial HSA): ~3 fold
Increase in DA-DKP production in the presence of the DPP-IV inhibitor (DPP-IV; 24 hours, 5% commercial HSA plus diprotin A): 10%
Compound: Ile-Pro-Ile [diprotin A]
DPP-IV activity in commercial HSA in the presence of DPP-IV inhibitor [2]: completely suppressed; also recorded: complete suppression of DPP-IV activity; also recorded: abolished

Compound: CC(=O)N[C@@H](Cc1c[nH]c2ccccc12)C(=O)O [NAT, N-acetyl-tryptophan]
Antagonism of the neurokinin-1 receptor (neurokinin-1 receptor): well-known antagonist
